Measured values published in EP4775575A1, “COMPOUND USED AS CDK4 KINASE INHIBITOR AND USE THEREOF” (TYK Medicines, Inc., priority 2023, dated 2025).

Experiments:
CDK6/CyclinD3 = target: T1, CDK6/CyclinD3 (Homo sapiens, UniProt Q00534); experiment: Kinase activity assay (MSA, EZ Reader) against CDK6; format: biochemical; conditions: CDK6/CyclinD3 5.00 nM, ATP 350 µM, FL-Peptide34, 10mM MgCl2
T1 construct: purchased Carna 04-107

[1] = system: human mantle cell lymphoma cells JEKO-1; experiment: Cell anti-proliferation assay (MTT), JEKO-1; format: cell-based; conditions: Homo sapiens, 120 h, JEKO-1 cells, incubated for 5 days
Protocol: (§1) Human breast cancer cells MCF-7, human ovarian cancer cells A2780, human mantle cell lymphoma cells JEKO-1. DMEM medium (Bio-Channel), DMSO (dimethyl sulfoxide), MTT (thiazolyl blue), 0.25% EDTA-Trypsin (trypsin digestive solution), 1×PBS (phosphate buffered saline, pH 7.2), 96-well plate (Corning), fetal bovine serum (FBS), 10,000 U/mL penicillin-G/streptomycin, high-speed refrigerated centrifuge (EPPENDORF 5810R), and microplate reader (Tecan Spark).
(§2) • A) Tumor cells were cultured in DMEM (high glucose, containing 10% FBS and 100 U/mL penicillin-G/streptomycin) at 37 °C, 5% CO2 and saturated humidity until 80-90% confluence. • B) The medium in the 10 cm culture dish was removed. • C) Cells were rinsed once with 10 mL of 1×PBS. • D) 4 mL of 0.25% EDTA-Trypsin was added, and the cells were digested in a 37 °C, 5% CO2 incubator for 5 minutes. The mixture was transferred to a 15 mL centrifuge tube, centrifuged at 200 g for 5 minutes, and the supernatant was discarded to obtain cell pellet. • E) The cells were resuspended in 4 mL of DMEM medium, counted, and adjusted to 50,000 cells/mL. • F) 100 µL of cell suspension was added to each well of a 96-well plate, and the plate was incubated overnight at 37 °C in a 5% CO2 incubator.
(§3) • A) Gradient dilution solutions of the test compounds were prepared: the test compound was prepared into a 1 mM stock solution. Then 1.5 µL of the stock solution was dissolved in 1.5 mL of DMSO-free medium, followed by 3-fold serial gradient dilution with medium containing 0.1% DMSO to give 9 concentrations.
(§4) • A) The cell culture plate was taken out, and 10 µL of 5 mg/mL MTT was added in a biological safety cabinet; • B) The plate was returned to the incubator and incubated for another 3 hours; • C) The cell culture plate was taken out and the medium was removed, 100 µL of isopropanol (containing 0.4 mM HCl, 0.1% NP-40) was added, and the plate was shaken at room temperature for 30 minutes; • D) The absorbance at 570 nm was measured using a TECAN microplate reader.

[2] = system: human ovarian cancer cells A2780; experiment: Cell anti-proliferation assay (MTT), A2780; format: cell-based; conditions: Homo sapiens, 120 h, incubated for 5 days
Protocol: as §1, §2, §3, §4

[3] = system: Human breast cancer cells MCF-7; experiment: Cell anti-proliferation assay (MTT), MCF-7; format: cell-based; conditions: Homo sapiens, MCF7, 120 h, MCF-7 cells, incubated for 5 days
Protocol: as §1, §2, §3, §4

CDK4/CycD1 = CDK4/CycD1 (Homo sapiens, UniProt P11802); experiment: Kinase activity assay (MSA, EZ Reader) against CDK4
[4] = Preclinical pharmacokinetic study in rats; format: in vivo, Sprague-Dawley (SD) rats; conditions: male SD rats, oral gavage (p.o.) 10 mg/kg, plasma
Protocol: Healthy adult Sprague-Dawley (SD) rats, male, 6-8 weeks old, weighing 200-300 g. EDTA-Na2 anticoagulant. Analytical balance, animal weighing scale, magnetic stirrer, refrigerated centrifuge, single-channel manual pipette, etc. About 10 mg of the test sample was precisely weighed, dissolved in a calculated volume of 5% DMSO, followed by addition of 10% solutol HS-15 and 85% normal saline. The mixture was sonicated and vortexed to homogeneity to obtain a solution with a concentration of 1 mg/mL. The solution was freshly prepared before use. Animals were housed in rat cages and fasted overnight (no less than 10 h) before the test, with free access to water. On the day of the test, animals were weighed and marked on the tail. Blank blood samples were collected before administration. The blood was collected via tail vein. • Route of administration: oral gavage (p.o.) • Dose: 10 mg/kg • Dosing volume: 10 mL/kg • Procedure: The rat was held upright with the left hand wearing bite-resistant glove. A 16-gauge gavage needle was inserted through the mouth into the esophagus. The needle was advanced gently without obvious resistance, and the drug solution was injected into the stomach. Whole blood (0.1 mL) were collected from each test animal before administration and at 0.5 […], and 24 h after administration into EDTA-Na2 anticoagulant tubes. The tubes were inverted 3-4 times for mixing, then centrifuged at 10,000 g for 5 min at 4 °C to separate plasma. Plasma samples were stored at -80 °C until analysis. Blood was collected via tail vein. […] The mixture was vortexed for 2 min and centrifuged at 10,000 g for 10 min at 4 °C. Processing of unknown plasma samples: 25 μL of drug-containing rat plasma was transferred, followed by addition of 25 μL of methanol and 200 μL of internal standard solution. The mixture was vortexed for 2 min and centrifuged at 10,000 g for 10 min at 4 °C. The supernatant was collected for LC-MS/MS analysis. A quantitative method for the determination of the test compound was established using a Shimadzu liquid chromatography system coupled with Triple Quad^TM 6500+ AB mass spectrometer. The concentration of the parent drug in plasma was determined. The plasma concentration-time curve was plotted, and the main pharmacokinetic parameters were calculated using a non-compartmental model in winnonlin Phoenix software.

T1 sequence (Q00534 whole entry): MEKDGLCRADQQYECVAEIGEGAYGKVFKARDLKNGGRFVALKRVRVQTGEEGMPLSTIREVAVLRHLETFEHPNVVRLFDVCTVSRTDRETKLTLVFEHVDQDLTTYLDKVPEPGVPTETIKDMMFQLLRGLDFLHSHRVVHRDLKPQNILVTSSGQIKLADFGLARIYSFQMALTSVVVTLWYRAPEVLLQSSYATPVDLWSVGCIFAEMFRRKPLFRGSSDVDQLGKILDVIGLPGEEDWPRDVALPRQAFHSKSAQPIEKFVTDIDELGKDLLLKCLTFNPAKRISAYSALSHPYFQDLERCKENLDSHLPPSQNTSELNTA
T1 sequence (P30281 whole entry partner): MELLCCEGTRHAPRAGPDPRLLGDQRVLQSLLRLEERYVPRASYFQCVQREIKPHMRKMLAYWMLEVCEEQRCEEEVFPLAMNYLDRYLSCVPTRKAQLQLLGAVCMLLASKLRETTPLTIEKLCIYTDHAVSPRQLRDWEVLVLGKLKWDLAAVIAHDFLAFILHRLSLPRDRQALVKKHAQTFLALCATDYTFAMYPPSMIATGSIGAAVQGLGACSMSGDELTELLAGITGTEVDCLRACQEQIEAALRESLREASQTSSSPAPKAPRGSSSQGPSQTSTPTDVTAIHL
Chain of CDK4/CycD1 (P11802 whole entry): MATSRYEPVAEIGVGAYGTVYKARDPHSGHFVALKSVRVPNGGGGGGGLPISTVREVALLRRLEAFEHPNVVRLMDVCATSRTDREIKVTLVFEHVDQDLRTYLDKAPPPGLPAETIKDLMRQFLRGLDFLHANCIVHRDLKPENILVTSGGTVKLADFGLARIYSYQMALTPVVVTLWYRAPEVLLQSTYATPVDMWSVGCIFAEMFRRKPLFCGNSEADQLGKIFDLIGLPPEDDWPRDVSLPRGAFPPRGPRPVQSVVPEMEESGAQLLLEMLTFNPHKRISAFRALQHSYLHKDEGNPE

Row | SMILES | IC50 (CDK6/CyclinD3) [µM] | IC50 [1] [µM] | IC50 [2] [µM] | IC50 [3] [µM] | IC50 (CDK4/CycD1) [µM] | AUC(0-t) ([4]; Sprague-Dawley, rat) [ng·h/mL] | Cmax ([4]; Sprague-Dawley, rat) [ng/mL] | Tmax ([4]; Sprague-Dawley, rat) [min] | HL_ [4] [h]
1 | CC(C)n1c(N(C)C)nc2c(F)cc(-c3nc(N[C@@H]4CCOC[C@H]4O)ncc3Cl)cc21 [TB-1] | 0.0678 | ≤ 0.5 | ≤ 0.5 | ≤ 0.5 | 0.0037 | – | – | – | –
2 | CC(C)n1c(N(C)C)nc2c(F)cc(-c3nc(NC4CCOCC4)ncc3Cl)cc21 [TB-2, 6-(5-chloro-2-((tetrahydro-2H-pyran-4-yl)amino)pyrimidin-4-yl)-4-fluoro-1-isopropyl-N,N-dimethyl-1H-benzo[d]imidazol-2-amine] | 0.319 | ≤ 0.5 | ≤ 0.5 | ≤ 0.5 | 0.018 | – | – | – | –
3 | CC(C)n1c(N(C)C)nc2c(F)cc(-c3nc(NC4CCN(S(C)(=O)=O)CC4)ncc3Cl)cc21 [TB-3, 6-(5-chloro-2-((1-(methylsulfonyl)piperidin-4-yl)amino)pyrimidin-4-yl)-4-fluoro-1-isopropyl-N,N-dimethyl-1H-benzo[d]imidazol-2-amine] | 0.0749 | ≤ 0.5 | ≤ 0.5 | ≤ 0.5 | 0.00697 | – | – | – | –
4 | CC(C)n1c(N(C)C)nc2c(F)cc(-c3nc(N[C@H]4CC[C@@H](NS(C)(=O)=O)CC4)ncc3Cl)cc21 [TB-4] | – | – | – | – | 0.0271 | – | – | – | –
5 | CC(C)n1c(N(C)C)nc2c(F)cc(-c3nc(N[C@H]4CC[C@H](NS(C)(=O)=O)CC4)ncc3Cl)cc21 [TB-5] | 0.0716 | ≤ 0.5 | ≤ 0.5 | ≤ 0.5 | 0.00424 | – | – | – | –
6 | CC(C)n1c(N2CC[C@H](O)C2)nc2c(F)cc(-c3nc(N[C@@H]4CCOC[C@H]4O)ncc3Cl)cc21 [TB-6, (S)-1-(6-(5-chloro-2-(((3S,4R)-3-hydroxytetrahydro-2H-pyran-4-yl)amino)pyrimidin-4-yl)-4-fluoro-1-isopropyl-1H-benzo[d]imidazol-2-yl)pyrrolidin-3-ol] | 0.19 | ≤ 0.5 | ≤ 0.5 | 0.5 to 2 | 0.0108 | – | – | – | –
7 | CC(C)n1c(N2CC[C@@H](O)C2)nc2c(F)cc(-c3nc(N[C@@H]4CCOC[C@H]4O)ncc3Cl)cc21 [TB-7, (R)-1-(6-(5-chloro-2-(((3S,4R)-3-hydroxytetrahydro-2H-pyran-4-yl)amino)pyrimidin-4-yl)-4-fluoro-1-isopropyl-1H-benzo[d]imidazol-2-yl)pyrrolidin-3-ol] | 0.113 | ≤ 0.5 | ≤ 0.5 | ≤ 0.5 | 0.00294 | – | – | – | –
8 | COC(=O)N(C)c1nc2c(F)cc(-c3nc(N[C@@H]4CCOC[C@H]4O)ncc3Cl)cc2n1C(C)C [TB-8, methyl (6-(5-chloro-2-(((3S,4R)-3-hydroxytetrahydro-2H-pyran-4-yl)amino)pyrimidin-4-yl)-4-fluoro-1-isopropyl-1H-benzo[d]imidazol-2-yl)(methyl)carbamate] | 0.334 | ≤ 0.5 | ≤ 0.5 | 0.5 to 2 | 0.0188 | – | – | – | –
9 | CC(C)n1c(N(C)CCO)nc2c(F)cc(-c3nc(N[C@@H]4CCOC[C@H]4O)ncc3Cl)cc21 [TB-9, (3S,4R)-4-((5-chloro-4-(4-fluoro-2-((2-hydroxyethyl)(methyl)amino)-1-isopropyl-1H-benzo[d]imidazol-6-yl)pyrimidin-2-yl)amino)tetrahydro-2H-pyran-3-ol] | 0.223 | ≤ 0.5 | ≤ 0.5 | 0.5 to 2 | 0.0401 | – | – | – | –
10 | CC(C)n1c(N2CCCC2)nc2c(F)cc(-c3nc(N[C@@H]4CCOC[C@H]4O)ncc3Cl)cc21 [TB-11, (3S,4R)-4-((5-chloro-4-(4-fluoro-1-isopropyl-2-(pyrrolidin-1-yl)-1H-benzo[d]imidazol-6-yl)pyrimidin-2-yl)amino)tetrahydro-2H-pyran-3-ol] | 0.202 | ≤ 0.5 | ≤ 0.5 | ≤ 0.5 | 0.00645 | – | – | – | –
11 | CC(C)n1c(N(C)C)nc2c(F)cc(-c3nc(N[C@@H]4CCN(S(C)(=O)=O)C[C@H]4O)ncc3Cl)cc21 [TB-13, (3R,4R)-4-((5-chloro-4-(2-(dimethylamino)-4-fluoro-1-isopropyl-1H-benzo[d]imidazol-6-yl)pyrimidin-2-yl)amino)-1-(methylsulfonyl)piperidin-3-ol] | 0.0186 | ≤ 0.5 | ≤ 0.5 | ≤ 0.5 | 0.00127 | – | – | – | –
12 | CNS(=O)(=O)c1ccc(Nc2ncc(Cl)c(-c3cc(F)c4nc(N(C)C)n(C(C)C)c4c3)n2)cc1 [TB-20, 4-((5-chloro-4-(2-(dimethylamino)-4-fluoro-1-isopropyl-1H-benzo[d]imidazol-6-yl)pyrimidin-2-yl)amino)-N-methylbenzenesulfonamide] | 0.141 | – | – | – | 0.0446 | – | – | – | –
13 | CC(C)n1c(N2CCCC2=O)nc2c(F)cc(-c3nc(N[C@@H]4CCOC[C@H]4O)ncc3Cl)cc21 [TB-23] | – | – | – | – | 0.185 | – | – | – | –
14 | CC(C)n1c(N2CCOC2=O)nc2c(F)cc(-c3nc(Nc4ccc(S(C)(=O)=O)cc4)ncc3Cl)cc21 [TB-54, 3-(6-(5-chloro-2-((4-(methylsulfonyl)phenyl)amino)pyrimidin-4-yl)-4-fluoro-1-isopropyl-1H-benzo[d]imidazol-2-yl)oxazolidin-2-one] | 0.411 | – | – | – | 0.101 | – | – | – | –
15 | C[C@H]1CCN(C)c2nc3c(F)cc(-c4nc(N[C@@H]5CCOC[C@H]5O)ncc4Cl)cc3n21 [TB-92, (3S,4R)-4-((5-chloro-4-((S)-9-fluoro-1,4-dimethyl-1,2,3,4-tetrahydrobenzo[4,5]imidazo[1,2-a]pyrimidin-7-yl)pyrimidin-2-yl)amino)tetrahydro-2H-pyran-3-ol] | 0.123 | ≤ 0.5 | ≤ 0.5 | ≤ 0.5 | – | 5020 | 1940 | 30 | 1.21
16 | CC(C)n1c(N2CCOC2=O)nc2c(F)cc(-c3ccnc(NC4CCN(S(C)(=O)=O)CC4)n3)cc21 [TB-94] | 0.458 | – | – | – | 0.0444 | – | – | – | –
17 | C[C@H]1CCN(C)c2nc3c(F)cc(-c4nc(N[C@@H]5CCN(S(C)(=O)=O)C[C@H]5O)ncc4Cl)cc3n21 [TB-96] | 0.0203 | – | – | – | 0.0021 | – | – | – | –
18 | CC(C)n1c(N2CCCOC2=O)nc2c(F)cc(-c3nc(NC4CCN(S(C)(=O)=O)CC4)ncc3Cl)cc21 [TB-142] | 0.361 | – | – | – | 0.0695 | – | – | – | –
19 | CC1(C)Cn2c(nc3c(F)cc(-c4nc(N[C@@H]5CCOC[C@H]5O)ncc4Cl)cc32)S(=O)(=O)C1 [TB-148] | 0.222 | – | – | – | 0.0714 | – | – | – | –
